Results on eleven molecules are retold here after patent US7247651B2, “2,7-substituted indoles” (Roche Palo Alto LLC, priority 2002, dated 2007).

Structures are written as SMILES.

As a reminder, the Ki is a measure of affinity in units of concentration, obtained from inhibition or displacement.

T1 sequence (P50406 whole entry): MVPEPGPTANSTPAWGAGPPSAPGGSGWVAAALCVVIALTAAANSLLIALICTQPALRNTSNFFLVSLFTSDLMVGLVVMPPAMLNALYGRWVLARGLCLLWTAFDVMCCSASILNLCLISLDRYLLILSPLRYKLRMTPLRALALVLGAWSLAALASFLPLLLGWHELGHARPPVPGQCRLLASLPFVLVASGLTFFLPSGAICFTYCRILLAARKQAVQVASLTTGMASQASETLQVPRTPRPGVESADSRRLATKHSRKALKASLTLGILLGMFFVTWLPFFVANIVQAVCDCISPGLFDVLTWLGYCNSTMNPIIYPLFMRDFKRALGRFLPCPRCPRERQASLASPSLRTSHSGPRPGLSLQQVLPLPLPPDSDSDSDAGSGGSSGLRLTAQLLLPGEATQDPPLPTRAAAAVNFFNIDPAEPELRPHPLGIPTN

The assay has as its target T1, recombinant human 5-HT6 receptor (Homo sapiens, UniProt P50406).
T1 construct: expressed in transfected cells; cell membranes used
Nature of the assay: in vitro radioligand binding, competition for [3H]LSD binding in membranes of HEK293 cells. Conditions: [3H]LSD (5 nM), HEK293 cell membranes, pH 7.4, 37° C., 60 min. As to the method: This example illustrates in vitro radioligand binding studies of Compound of Formula I.
The binding activity of compounds of this invention in vitro was determined as follows. Duplicate determinations of ligand affinity are made by competing for binding of [^3H]LSD in cell membranes derived from HEK293 cells stably expressing recombinant human 5-HT6 receptor.
All determinations were made in assay buffer containing 50 mM Tris-HCl, 10 mM MgSO4, 0.5 mM EDTA, 1 mM ascorbic acid, pH 7.4 at 37° C., in a 250 microliter reaction volume. Assay tubes containing [3H] LSD (5 nM), competing ligand, and membrane were incubated in a shaking water bath for 60 min. at 37° C., filtered onto Packard GF-B plates (pre-soaked with 0.3% PEI) using a Packard 96 well cell harvester and washed 3 times in ice cold 50 mM Tris-HCl. Bound [^3H] LSD was determined as radioactive counts per minute using Packard TopCount.
Displacement of [3H]LSD from the binding sites was quantified by fitting concentration-binding data to a 4-parameter logistic equation:
[formula] where Hill is the Hill slope, [ligand] is the concentration of competing radioligand and IC50 is the concentration of radioligand producing half-maximal specific binding of radioligand. The specific binding window is the difference between the Bmax and the basal parameters.
Using the procedures of Example 6, compounds of Formula I were tested and found to be selective 5-HT6 antagonists.
Turning to `O=S(=O)(c1ccccc1)c1cc2cccc(N3CCNCC3)c2[nH]1` [Compound 1, 2-Benzenesulfonyl-7-piperazin-1-yl-1H-indole], the Ki was 0.501 nM. For the molecule `CN1CCN(c2cccc3cc(S(=O)(=O)c4ccccc4)[nH]c23)CC1` [Compound 2, 2-Benzenesulfonyl-7-(4-methyl-piperazin-1-yl)-1H-indole], the Ki was 0.794 nM. With `O=S(=O)(c1cc2cccc(N3CCNCC3)c2[nH]1)c1cccc(Cl)c1Cl` [Compound 3, 2-(2,3-Dichloro-benzenesulfonyl)-7-piperazin-1-yl-1H-indole], the inhibition constant Ki is 0.2 nM. Consider `CN1CCN(c2cccc3cc(S(=O)(=O)c4cccc(Cl)c4Cl)[nH]c23)CC1` [Compound 4, 2-(2,3-Dichloro-benzenesulfonyl)-7-(4-methyl-piperazin-1-yl)-1H-indole], for which the Ki is 0.794 nM.

In the case of `O=S(=O)(c1cc2cccc(N3CCNCC3)c2[nH]1)c1ccccc1F` [Compound 5, 2-(2-Fluoro-benzenesulfonyl)-7-piperazin-1-yl-1H-indole], the Ki is 0.501 nM. In the case of `O=S(=O)(c1ccccc1)c1cc2cccc(C3CCNCC3)c2[nH]1` [Compound 6, 2-Benzenesulfonyl-7-piperidin-4-yl-1H-indole], the Ki is 0.631 nM. For the molecule `CN1CCC(c2cccc3cc(S(=O)(=O)c4ccccc4)[nH]c23)CC1` [Compound 7, 2-Benzenesulfonyl-7-(1-methyl-piperidin-4-yl)-1H-indole], the inhibition constant Ki was 1 nM. With `CN1CCN(c2cccc3cc(S(=O)(=O)c4ccccc4C(F)(F)F)[nH]c23)CC1` [Compound 8, 7-(4-Methyl-piperazin-1-yl)-2-(2-trifluoromethyl-benzenesulfonyl)-1H-indole] the figure was 0.316 nM; with `O=S(=O)(c1cc2cccc(N3CCNCC3)c2[nH]1)c1ccccc1C(F)(F)F` [Compound 9, 7-Piperazin-1-yl-2-(2-trifluoromethyl-benzenesulfonyl)1H-indole], 0.316 nM; with `CN1CCN(c2cccc3cc(S(=O)(=O)c4cccc(Br)c4)[nH]c23)CC1` [Compound 10, 2-(3-Bromo-benzenesulfonyl)-7-(4-methyl-piperazin-1-yl)-1H-indole], 0.251 nM. The same measure for `O=S(=O)(c1cccc(Br)c1)c1cc2cccc(N3CCNCC3)c2[nH]1` [Compound 11, 2-(3-Bromo-benzenesulfonyl)-7-piperazin-1-yl-1H-indole]: 0.501 nM.
